Data from ChEMBL document CHEMBL1201862, “PubChem BioAssay data set” (2004).
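48-hour exposure; five concentrations; linearly interpolated endpoints. GI50 = concentration required for 50% inhibition of growth.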 Active and inactive are the calls of the source. Cut-off read from the data, not from the text of the source: active = GI50 up to about 1.1 µM and inactive = higher.

Assays:
Test in all cases: NCI tumour cell line growth inhibition, 48 h
NCI-H23 = test system: NCI-H23
PC-3 = test system: PC-3
OVCAR-8 = test system: OVCAR-8
DU-145 = test system: DU-145
SK-MEL-2 = test system: SK-MEL-2
LOX IMVI = test system: LOX IMVI
SN12C = test system: SN12C
RPMI-8226 = test system: RPMI-8226
SK-MEL-5 = test system: SK-MEL-5
OVCAR-3 = test system: OVCAR-3
SNB-75 = test system: SNB-75
SK-MEL-28 = test system: SK-MEL-28
NCI-H522 = test system: NCI-H522
K562 = test system: K562
COLO 205 = test system: COLO 205
MCF7 = test system: MCF7
CAKI-1 = test system: CAKI-1
UO-31 = test system: UO-31
HT-29 = test system: HT-29
T47D = test system: T47D
HCT-15 = test system: HCT-15
MDA-MB-231 = test system: MDA-MB-231
U-251 = test system: U-251
HCC 2998 = test system: HCC 2998
EKVX = test system: EKVX
MOLT-4 = test system: MOLT-4
KM12 = test system: KM12
NCI/ADR-RES = test system: NCI/ADR-RES
ACHN = test system: ACHN
Malme-3M = test system: Malme-3M
NCI-H226 = test system: NCI-H226
HCT-116 = test system: HCT-116
BT-549 = test system: BT-549
SR = test system: SR
Hs-578T = test system: Hs-578T
HL-60 = test system: HL-60
UACC-62 = test system: UACC-62
HOP-62 = test system: HOP-62
SNB-19 = test system: SNB-19
786-0 = test system: 786-0
NCI-H460 = test system: NCI-H460
TK-10 = test system: TK-10
OVCAR-5 = test system: OVCAR-5
SF-295 = test system: SF-295
UACC-257 = test system: UACC-257
MDA-N = test system: MDA-N
IGROV-1 = test system: IGROV-1
SW-620 = test system: SW-620
MDA-MB-435 = test system: MDA-MB-435
OVCAR-4 = test system: OVCAR-4
A498 = test system: A498
SF-268 = test system: SF-268
A549 = test system: A549
CCRF-CEM = test system: CCRF-CEM
SK-OV-3 = test system: SK-OV-3
HOP-92 = test system: HOP-92
SF-539 = test system: SF-539
RXF 393 = test system: RXF 393
M14 = test system: M14

Q: How did the GI50 (NCI-H23) turn out when `CC(C)(C)C1CCC(=O)/C(=C/CC2CC(=O)N(c3ccccc3)C(=O)C2)C1` (centres undefined) was run?
A: 17.8 µM (inactive)

Q: And the GI50 (PC-3)?
A: 27.5 µM (inactive)

Q: What about the GI50 (OVCAR-8) of the same compound?
A: 19.8 µM (inactive)

Q: What about the GI50 (DU-145) of the same compound?
A: 19.2 µM (inactive)

Q: What about the GI50 (SK-MEL-2) of the same compound?
A: 19.4 µM (inactive)

Q: What about the GI50 (LOX IMVI) of the same compound?
A: 13.7 µM (inactive)

Q: What about the GI50 (SN12C) of the same compound?
A: 17.5 µM (inactive)

Q: What about the GI50 (RPMI-8226) of the same compound?
A: 18.7 µM (inactive)

Q: What about the GI50 (SK-MEL-5) of the same compound?
A: 16.4 µM (inactive)

Q: What about the GI50 (OVCAR-3) of the same compound?
A: 23.1 µM (inactive)

Q: And the GI50 (SNB-75)?
A: 21.9 µM (inactive)

Q: What about the GI50 (SK-MEL-28) of the same compound?
A: 21.2 µM (inactive)

Q: And the GI50 (NCI-H522)?
A: 18.9 µM (inactive)

Q: What about the GI50 (K562) of the same compound?
A: 19.5 µM (inactive)

Q: And the GI50 (COLO 205)?
A: 20.8 µM (inactive)

Q: What about the GI50 (MCF7) of the same compound?
A: 19.3 µM (inactive)

Q: And the GI50 (CAKI-1)?
A: 20.9 µM (inactive)

Q: What about the GI50 (UO-31) of the same compound?
A: 16.6 µM (inactive)

Q: What about the GI50 (HT-29) of the same compound?
A: 19.8 µM (inactive)

Q: What about the GI50 (T47D) of the same compound?
A: 21.8 µM (inactive)

Q: What about the GI50 (HCT-15) of the same compound?
A: 15.5 µM

Q: What about the GI50 (MDA-MB-231) of the same compound?
A: 44 µM (inactive)

Q: What about the GI50 (U-251) of the same compound?
A: 14.9 µM (inactive)

Q: And the GI50 (HCC 2998)?
A: 23.8 µM (inactive)

Q: What about the GI50 (EKVX) of the same compound?
A: 26 µM (inactive)

Q: And the GI50 (MOLT-4)?
A: 34.1 µM (inactive)

Q: And the GI50 (KM12)?
A: 18.5 µM (inactive)

Q: And the GI50 (NCI/ADR-RES)?
A: 17.8 µM (inactive)

Q: What about the GI50 (ACHN) of the same compound?
A: 19.9 µM (inactive)

Q: And the GI50 (Malme-3M)?
A: 18.6 µM (inactive)

Q: What about the GI50 (NCI-H226) of the same compound?
A: 16.1 µM (inactive)

Q: And the GI50 (HCT-116)?
A: 14.8 µM (inactive)

Q: And the GI50 (BT-549)?
A: 20.4 µM (inactive)

Q: And the GI50 (SR)?
A: 10.3 µM (inactive)

Q: What about the GI50 (Hs-578T) of the same compound?
A: 33.1 µM (inactive)

Q: And the GI50 (HL-60)?
A: 26.8 µM (inactive)

Q: What about the GI50 (UACC-62) of the same compound?
A: 14.5 µM (inactive)

Q: And the GI50 (HOP-62)?
A: 30.2 µM (inactive)

Q: And the GI50 (SNB-19)?
A: 22 µM (inactive)

Q: And the GI50 (786-0)?
A: 19.8 µM (inactive)

Q: What about the GI50 (NCI-H460) of the same compound?
A: 16.6 µM (inactive)

Q: What about the GI50 (TK-10) of the same compound?
A: 17.5 µM (inactive)

Q: And the GI50 (OVCAR-5)?
A: 17.4 µM (inactive)

Q: And the GI50 (SF-295)?
A: 47.8 µM (inactive)

Q: What about the GI50 (UACC-257) of the same compound?
A: 14.7 µM (inactive)

Q: What about the GI50 (MDA-N) of the same compound?
A: 22.6 µM (inactive)

Q: And the GI50 (IGROV-1)?
A: 19.7 µM (inactive)

Q: And the GI50 (SW-620)?
A: 23.4 µM (inactive)

Q: What about the GI50 (MDA-MB-435) of the same compound?
A: 23.8 µM (inactive)

Q: And the GI50 (OVCAR-4)?
A: 32.7 µM (inactive)

Q: And the GI50 (A498)?
A: 24.5 µM (inactive)

Q: And the GI50 (SF-268)?
A: 20.1 µM (inactive)

Q: Which results are given for `C[C@]12CC[C@@H]3c4cc(Br)c(O)c(Br)c4CC[C@H]3[C@@H]1CC(Br)C2=O` (some centres undefined)?
A: GI50 (PC-3): 8.61 µM (inactive); GI50 (OVCAR-8): 2.54 µM (inactive); GI50 (DU-145): 23.4 µM (inactive); GI50 (A549): 17.4 µM (inactive); GI50 (SK-MEL-2): 12.2 µM (inactive); GI50 (CCRF-CEM): 1.71 µM (inactive); GI50 (LOX IMVI): 3.57 µM (inactive); GI50 (SN12C): 4.53 µM (inactive); GI50 (OVCAR-3): 2.58 µM (inactive); GI50 (SK-OV-3): 14.6 µM (inactive); GI50 (SNB-75): 12.1 µM (inactive); GI50 (SK-MEL-28): 7.28 µM (inactive); GI50 (HOP-92): 20.7 µM (inactive); GI50 (K562): 2.29 µM (inactive); GI50 (COLO 205): 7.87 µM (inactive); GI50 (MCF7): 5.61 µM (inactive); GI50 (CAKI-1): 3.7 µM (inactive); GI50 (UO-31): 1.23 µM (inactive); GI50 (HT-29): 3.26 µM (inactive); GI50 (T47D): 4.65 µM (inactive); GI50 (HCT-15): 2.65 µM; GI50 (MDA-MB-231): 6.62 µM (inactive); GI50 (U-251): 3.3 µM (inactive); GI50 (HCC 2998): 1.99 µM (inactive); GI50 (EKVX): 13.2 µM (inactive); GI50 (MOLT-4): 2.53 µM (inactive); GI50 (KM12): 3.57 µM (inactive); GI50 (NCI/ADR-RES): 4.63 µM (inactive); GI50 (ACHN): 6.37 µM (inactive); GI50 (Malme-3M): 15.2 µM (inactive); GI50 (SF-539): 7.52 µM (inactive); GI50 (NCI-H226): 6.5 µM (inactive); GI50 (RXF 393): 2.51 µM (inactive); GI50 (HCT-116): 3.66 µM (inactive); GI50 (BT-549): 5 µM (inactive); GI50 (Hs-578T): 5.86 µM (inactive); GI50 (HL-60): 2.59 µM (inactive); GI50 (UACC-62): 3.59 µM (inactive); GI50 (M14): 7.03 µM (inactive); GI50 (786-0): 4.24 µM (inactive); GI50 (NCI-H460): 5.82 µM (inactive); GI50 (TK-10): 14.2 µM (inactive); GI50 (OVCAR-5): 22.1 µM (inactive); GI50 (SF-295): 16.6 µM (inactive); GI50 (UACC-257): 15.8 µM (inactive); GI50 (MDA-N): 5.79 µM (inactive); GI50 (IGROV-1): 9.23 µM (inactive); GI50 (SW-620): 3.36 µM (inactive); GI50 (MDA-MB-435): 4.13 µM (inactive); GI50 (OVCAR-4): 5.97 µM (inactive); GI50 (A498): 23.3 µM (inactive); GI50 (SF-268): 5.68 µM (inactive)
